Laboratory results: PubChem BioAssay (NCI)
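Cells were grown in 96-well plates and exposed to each compound for 48 hours at five concentrations; endpoints were interpolated linearly between bracketing concentrations, or set to the highest concentration if not reached. GI50: concentration for 50% inhibition of growth. TGI: total growth inhibition.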

Key:
Assay in all cases: DTP human tumour cell line panel, 48 h
NCI-H23 lung = system: NCI-H23 lung
HCT-15 colon = system: HCT-15 colon
SK-OV-3 ovarian = system: SK-OV-3 ovarian
CAKI-1 renal = system: CAKI-1 renal
MOLT-4 leukemia = system: MOLT-4 leukemia
MCF7 breast = system: MCF7 breast
NCI/ADR-RES ovarian = system: NCI/ADR-RES ovarian
SF-295 CNS = system: SF-295 CNS
SF-268 CNS = system: SF-268 CNS
MDA-MB-435 = system: MDA-MB-435
RXF 393 renal = system: RXF 393 renal
K-562 leukemia = system: K-562 leukemia
HOP-92 NSCLC = system: HOP-92 NSCLC
COLO 205 colon = system: COLO 205 colon
UO-31 renal = system: UO-31 renal
OVCAR-8 ovarian = system: OVCAR-8 ovarian
OVCAR-4 ovarian = system: OVCAR-4 ovarian
786-0 renal = system: 786-0 renal
U251 CNS = system: U251 CNS
IGROV1 ovarian = system: IGROV1 ovarian
CCRF-CEM leukemia = system: CCRF-CEM leukemia
MDA-MB-231 breast = system: MDA-MB-231 breast
SK-MEL-28 melanoma = system: SK-MEL-28 melanoma
NCI-H226 lung = system: NCI-H226 lung
SNB-75 CNS = system: SNB-75 CNS
HT29 colon = system: HT29 colon
MALME-3M melanoma = system: MALME-3M melanoma

Work on Oc1ccc2oc3ncc(Cl)c(-c4ccccc4)c3c2c1 yielded a GI50 (NCI-H23 lung) of over 100 µM, a TGI (NCI-H23 lung) of over 100 µM and a GI50 (HCT-15 colon) of over 100 µM. The TGI (HCT-15 colon) was over 100 µM, the GI50 (SK-OV-3 ovarian) was over 100 µM and the TGI (SK-OV-3 ovarian) was over 100 µM. The GI50 (CAKI-1 renal) was over 100 µM, the TGI (CAKI-1 renal) was over 100 µM and the GI50 (MOLT-4 leukemia) was over 100 µM. The TGI (MOLT-4 leukemia) was over 100 µM, the GI50 (MCF7 breast) was over 100 µM and the TGI (MCF7 breast) was over 100 µM. For the same compound, the GI50 (NCI/ADR-RES ovarian) was over 100 µM, the TGI (NCI/ADR-RES ovarian) was over 100 µM and the GI50 (SF-295 CNS) was over 100 µM. The TGI (SF-295 CNS) was over 100 µM, the GI50 (SF-268 CNS) was over 100 µM and the TGI (SF-268 CNS) was over 100 µM. The GI50 (MDA-MB-435) was over 100 µM, the TGI (MDA-MB-435) was over 100 µM and the GI50 (RXF 393 renal) was over 100 µM. For the same compound, the TGI (RXF 393 renal) was over 100 µM, the GI50 (K-562 leukemia) was over 100 µM and the TGI (K-562 leukemia) was over 100 µM. It also gave a GI50 (HOP-92 NSCLC) of over 100 µM, a TGI (HOP-92 NSCLC) of over 100 µM and a GI50 (COLO 205 colon) of over 100 µM. The TGI (COLO 205 colon) was over 100 µM, the GI50 (UO-31 renal) was over 100 µM and the TGI (UO-31 renal) was over 100 µM. It also gave a GI50 (OVCAR-8 ovarian) of over 100 µM, a TGI (OVCAR-8 ovarian) of over 100 µM and a GI50 (OVCAR-4 ovarian) of over 100 µM. It also gave a TGI (OVCAR-4 ovarian) of over 100 µM, a GI50 (786-0 renal) of 93.9 nM and a TGI (786-0 renal) of over 100 µM. For the same compound, the GI50 (U251 CNS) was over 100 µM, the TGI (U251 CNS) was over 100 µM and the GI50 (IGROV1 ovarian) was over 100 µM. The TGI (IGROV1 ovarian) was over 100 µM, the GI50 (CCRF-CEM leukemia) was 21.2 µM and the TGI (CCRF-CEM leukemia) was 63.2 µM. It also gave a GI50 (MDA-MB-231 breast) of over 100 µM, a TGI (MDA-MB-231 breast) of over 100 µM and a GI50 (SK-MEL-28 melanoma) of over 100 µM. It also gave a TGI (SK-MEL-28 melanoma) of over 100 µM, a GI50 (NCI-H226 lung) of over 100 µM and a TGI (NCI-H226 lung) of over 100 µM. For the same compound, the GI50 (SNB-75 CNS) was over 100 µM, the TGI (SNB-75 CNS) was over 100 µM and the GI50 (HT29 colon) was over 100 µM. It also gave a TGI (HT29 colon) of over 100 µM, a GI50 (MALME-3M melanoma) of over 100 µM and a TGI (MALME-3M melanoma) of over 100 µM.
